# Source: patent US5776945A (priority 1995, dated 1998)
# What was measured:
# [1] = tested on: Rat Middle Cerebral Artery Occlusion Model; experiment: Infarction Suppression Effect in Rat Middle Cerebral Artery Occlusion (MCAO) Model; assay type: in vivo, rat (Wistar); conditions: i.p. 1 hour before occlusion and 1 hour after reopening, infarction volume 4 days after
# Description: Remarkable cerebral edema accompanied with severe cerebrovascular lesions appears in the acute stage of human cerebral infarction. […] Corresponding to development of the lesion from the infarction area to surrounding tissues, the patient's life is seriously affected besides motor and mental functional loss in the conditions of the acute stage of cerebral infarction. A middle cerebral artery occlusion (MCAO; Middle Cerebral Artery Occlusion) model in Wistar rats using emboli with threads is well known as an experimental cerebral ischemia model in which clinical potency of a medicine can be accurately evaluated conforming to clinical conditions of human cerebral infarction [J. Koizumi, Japan Journal of Stroke, 8, 1 (1986)]. This MCAO model was employed as an in vivo evaluation system for evaluating the suppression effect of the compounds of the present invention on infarction development and was conducted according to the following method:
# Under 1.0% halothane anesthesia induced by ether, the cervical region of each 10-week old rat was excised at center to expose the furcation of the right carotid while paying attention not to damage the vagus nerve. Centering around the furcation of the right carotid, the common carotid and the external carotid were separated from the surrounding tissues, each of them was ligated with 6-0 floss (Eto K.K.), and another floss was wound around the origin of the internal carotid so as to ligate and fix after inserting the embolus into the carotid. The common carotid was then incised to insert the ebolus toward the internal carotid to approximately 15 to 16 mm, and the proximal terminal of a nylon thread of the embolus was ligated and fixed to the internal carotid with the above mentioned floss. Due to the above procedure, the tip of the embolus exceeded the furcation of the middle cerebral artery, entered into the anterior cerebral artery to approximately 1 to 2 mm, and the entrance of the middle cerebral artery was occluded by the embolus body (made of a resin) for 2 hours. To reopen, the embolus with a thread was pulled away so as to restart the blood flow to the middle cerebral artery. Each of the subject compounds was intraperitoneally administered 1 hour before occlusion and 1 hour after reopening. Four days after the occlusion-reopening, each rat was systematically perfused with a saline from the heart and the brain was removed. After cooling each of the obtained brains with iced-water for 5 min., 7 coronary slices, taken at 2.0 mm intervals, of the cerebrum were prepared. Each slice was stained with TTC (triphenyltetrazolium chloride) and fixed with a neutral 5% formalin buffer solution, then the infarction area of the right cerebral hemisphere was measured by an image analyzer (Olympus) so as to evaluate the infraction expressed as a volume (mm3). The resulting infraction volume was compared with that of a control group to calculate the infarction suppression ratio.
# [2] = tested on: Capsaicin Induced Cough; experiment: animal or person; assay type: in vivo; conditions: Rattus norvegicus, ip; read-out: ED50, antitussive effect (dose exhibiting 50% cough suppression ratio)
# [3] = tested on: Cultured Neurocyte (cerebral cortexes), Glutamic Acid Toxicity; experiment: Cultured-Neurocyte Protective Effect against Glutamic Acid Toxicity (LDH leakage); assay type: cell-based, rat (Wistar, fetal); conditions: Rattus norvegicus, Cerebral cortex neuron, 10 mM glutamic acid, 24 hours at 37° C., read-out: ED50 (50% effective dose), neurocyte protective effect against glutamic acid toxicity
# Description: It is known that delayed cerebral-neuronal death is induced if blood flow to the brain is transiently stopped by transient ischemia, anoxia, hypoglycemia, or trauma [T. Kirino, Brain Research, 239, 57 (1982).]. The excitatory toxicity of excitatory neurotransmitters, such as glutamic acid, which is excessively released when associated with ischemia is considered as the cause of the neurocyte damage [S. M. Rotherman and J. W. Olney, Trends in Neuroscience, 10, 299 (1987).]. A compound which protects neurocytes from the cytotoxicity of glutamic acid will be promising as a preventive and therapeutic agent for cerebral ischemic diseases, cerebral neurocyte disorder, and dementia. The following method is employed as an in vitro evaluation system of the protective effect.
# Under sterilized conditions, fetuses were taken from female Wistar rats 18 to 19 day-pregnant and the brains thereof were obtained by opening their cranial portions. The brains were placed in an ice-cold L-15 medium to microscopically separate the cerebral cortexes. After being cut into small pieces, the cerebral cortexes of approximately 30 rats were suspended in a mixture of 10 ml of a 0.25% trypsin solution and 0.2 ml of a 0.01% DNase solution to be cultured at 37° C. for 30 min. Then, immediately after addition of 2 ml of serum, the resultant was centrifuged at 1,200 rpm for 2 min. to separate a sediment. To the sediment, 7 ml of a DF medium (prepared by addition of 20 nM of transferrin, 5 μg/ml of insulin, 20 nM of progesterone, 60 nM of selenite, 50 U/ml of penicillin, and 50 U/ml of streptomycin to an equivalent admixture of Dulbecco modified Eagle medium and F-12 medium) was added to prepare a cell suspension which was pipetted 20 times using a 10 ml plastic pipette followed by filtration using a nylon mesh (pore size of 43 μm) to obtain isolated cells. The resulting isolated cells were diluted to 6.0×10^5 cells/ml with the DF medium, inoculated in a polylysine-precoated culture plate having 48 wells at 500 μl per well, and cultured at 37° C. in the presence of 5% CO2 for 1 day. The medium was changed with fresh DF medium on the second day, and 10 μl of a 0.5M glutamic acid solution in distilled water is added to each of the wells (the final concentration of the glutamic acid was 10 mM), and the cells were cultured for further 24 hours at 37° C. in the presence of 5% CO2. Each of the subject compounds was dissolved in distilled water, 10% or 100% DMSO, or 10% methanol and then a 5 μl aliquot was added to each well immediately before addition of glutamic acid. The enzymatic activity of lactate dehydrogenase (LDH) which leaked into the medium from the damaged cells was measured as an index of the neurocyte damage. With respect to each of the subject compounds, LDH leakage at the respective concentrations was measured and a dose-response curve was obtained by a modified Cochran-Armitige method to obtain the 50% effective dose (ED50) of each subject compound.
# [4] = tested on: Acetic Acid-Induced Writhing; experiment: Analgesic Activity Test by Acetic Acid-Induced Writhing Method; assay type: in vivo, mouse (ddY); conditions: Mus musculus, sc; subcutaneous, 15 min. before acetic acid; writhings over 10 min.
# Experimental: For this experiment, 5-week old ddY mice were employed. A 0.6% aqueous acetic acid solution was intraperitoneally administered to each of the mice at 0.1 ml/10 g body weight to evaluate the analgesic activity by employing the number of writhing reactions occurring over a 10 min.-period starting from 10 min. after administration as an index. Each of the subject compounds was subcutaneously administered to the back of each mouse 15 min. before the acetic acid administration.
SMILES,Infarction suppression ratio ([1]; Dose 0.03 mg/kg),Infarction suppression ratio ([1]; Dose 0.3 mg/kg),Infarction suppression ratio ([1]; Dose 3 mg/kg),ED50 [2],EC50 [3],ED50 [4]
"CN(C(=O)/C=C/c1cccc(C(F)(F)F)c1)[C@H]1CC[C@H]2CN(CC3CC3)CC[C@]2(c2cccc(O)c2)C1 (relative stereo) [Compound 1, Trans-2-cyclopropylmethyl-4a-(3-hydroxyphenyl)-6α-[N-methyl-(3-trifluoromethylcinnamamido)]decahydroisoquinoline]",32%,13%,23%,–,–,–
"CN(C(=O)/C=C/c1cccc(C(F)(F)F)c1)[C@H]1CC[C@@]2(O)CN(CC3CC3)CC[C@]2(c2cccc(O)c2)C1 (relative stereo) [Compound 12, Trans-2-cyclopropylmethyl-8a-hydroxy-4a-(3-hydroxyphenyl)-6α-[N-methyl-(3-trifluoromethylcinnamamido)]decahydroisoquinoline]",–,64%,48%,0.00607 mg/kg,480 nM,1.49 mg/kg
"CC(C)CN(C(=O)CCCCCc1ccccc1)[C@H]1CC[C@@]2(O)CN(CC3CC3)CC[C@]2(c2cccc(O)c2)C1 (relative stereo) [Compound 13, Trans-2-cyclopropylmethyl-8a-hydroxy-4a-(3-hydroxyphenyl)-6α-[N-isobutyl-(6-phenylhexanoamido)]decahydroisoquinoline]",–,–,–,–,3000 nM,–
"CC(C)CN(C(=O)Cc1ccc(Cl)c(Cl)c1)[C@H]1CC[C@@]2(O)CN(CC3CC3)CC[C@]2(c2cccc(O)c2)C1 (relative stereo) [Compound 14, Trans-2-cyclopropylmethyl-8a-hydroxy-4a-(3-hydroxyphenyl)-6α-[N-isobutyl-(3,4-dichlorophenylacetamido)]decahydroisoquinoline]",–,–,–,–,1100 nM,5.78 mg/kg
"O=C(Cc1ccc(Cl)c(Cl)c1)N[C@@H]1CC[C@H]2CN(CC3CC3)CC[C@]2(c2cccc(O)c2)C1 (relative stereo) [Compound 21, Trans-2-cyclopropylmethyl-4a-(3-hydroxyphenyl)-6β-(3,4-dichlorophenylacetamido)decahydroisoquinoline]",–,–,–,–,12600 nM,–
"O=C(N[C@@H]1CC[C@H]2CN(CC3CC3)CC[C@]2(c2cccc(O)c2)C1)c1ccc2ccccc2c1 (relative stereo) [Compound 23, Trans-2-cyclopropylmethyl-4a-(3-hydroxyphenyl)-6β-(2-naphthoamido)decahydroisoquinoline]",–,23%,–,–,92 nM,–
"O=C(N[C@@H]1CC[C@H]2CN(CCc3ccccc3)CC[C@]2(c2cccc(O)c2)C1)c1ccc2ccccc2c1 (relative stereo) [Compound 24, Trans-2-(2-phenetyl)-4a-(3-hydroxyphenyl)-6β-(2-naphthoamido)decahydroisoquinoline]",–,–,–,–,–,1.7 mg/kg
CN(C(=O)/C=C/c1ccoc1)[C@H]1CC[C@H]2CN(CC3CC3)CC[C@]2(c2cccc(O)c2)C1 (relative stereo) [Compound 25],–,–,–,–,–,0.83 mg/kg
"CN(C(=O)/C=C/c1cccc(C(F)(F)F)c1)[C@H]1CC[C@H]2CN(CC3CC3)CC[C@]2(c2cccc(O)c2)C1 [Compound 8, (4aS, 8aR)-trans-2-cyclopropylmethyl-4a-(3-hydroxyphenyl)-6α-[N-methyl-(3-trifluoromethylcinnamamido)]decahydroisoquinoline]",26%,43%,32%,0.00539 mg/kg,–,–
"CN(C(=O)/C=C/c1cccc(C(F)(F)F)c1)[C@@H]1CC[C@@H]2CN(CC3CC3)CC[C@@]2(c2cccc(O)c2)C1 [Compound 9, (4aR, 8aS)-trans-2-cyclopropylmethyl-4a-(3-hydroxyphenyl)-6α-[N-methyl-(3-trifluoromethylcinnamamido)]decahydroisoquinoline]",–,28%,7%,–,520 nM,3.11 mg/kg
"CN(C(=O)CCCCCc1ccccc1)[C@H]1CC[C@H]2CN(CC3CC3)CC[C@]2(c2cccc(O)c2)C1 [Compound 10, (4aS, 8aR)-trans-2-cyclopropylmethyl-4a-(3-hydroxyphenyl)-6α-[N-methyl-(6-phenylhexanoamido)]decahydroisoquinoline]",19%,21%,7%,–,43 nM,5 mg/kg
"CC(C)CN(C(=O)CCCCCc1ccccc1)[C@H]1CC[C@H]2CN(CC3CC3)CC[C@]2(c2cccc(O)c2)C1 [Compound 11, (4aS, 8aR)-trans-2-cyclopropylmethyl-4a-(3-hydroxyphenyl)-6α-[N-isobutyl-(6-phenylhexanoamido)]decahydroisoquinoline]",5%,–,33%,–,60900 nM,–
